This data set can be described thus: Phase 1 trial, PK profile of glepaglutide after SC injections in healthy subjects. Type of data set: in vivo, human. The following applies: individual subjects; for Half-life of ZP2469 in the interval from 72 to 168 hours post dose: final data; for Half-life ZP2469: preliminary data. The procedure:
A Phase 1 clinical trial to characterize the pharmacokinetic (PK) profiles of glepaglutide (ZP1848) and its primary active metabolites following once-weekly and once daily subcutaneous (SC) injections and after a single intravenous (IV) infusion in healthy subjects was conducted. This included evaluating the pharmacodynamic effects on plasma citrulline levels following SC dosing in healthy subjects. The trial confirmed the feasibility of dosage regimes in which GLP-2 analogues are administered to patients in weekly dosage regimes and compare weekly dosage regimes with daily dosing.
The trial design was a single-center, open-label, partially randomized, 3-part, parallel group trial to characterize the PK profile of glepaglutide administered by SC injection once daily for 7 days (Part 1), SC injection once weekly for 6 weeks (Part 2), and as a single IV infusion (Part 3) in healthy subjects.
Glepaglutide was supplied as an aqueous solution at concentrations of 2 and 10 mg/mL. • Group A: 1 mg glepaglutide once daily, given as single SC injections on Days 1 to 7. • Group B: 5 mg glepaglutide once daily, given as single SC injections on Days 1 to 7. • Group C: 5 mg glepaglutide once weekly, given as single SC injections on Days 1, 8, 15, 22, 29, and 36. • Group D: 10 mg glepaglutide once weekly, given as single SC injections on Days 1, 8, 15, 22, 29, and 36. • Group E: 1 mg glepaglutide, given as an IV infusion at a rate of 4 mg/h for 15 minutes on Day 1.
Blood samples were collected for the analysis of plasma concentrations of glepaglutide and its primary active metabolites, ZP2469 (ZP18481-34) and ZP2711 (ZP18481-35); samples were assayed using validated analytical methods. The following PK parameter estimates were calculated using standard non-compartmental methods: terminal elimination half-life (t1/2), total body clearance of drug after IV administration (CL; IV dose, parent drug only), apparent total clearance (CL/F; SC doses, parent drug only), volume of distribution at steady state (Vss; IV dose, parent drug only), apparent volume of distribution at steady state (Vss/F; SC doses, parent drug only), volume of distribution (Vz; IV dose, parent drug only), apparent volume of distribution (Vz/F; SC doses, parent drug only), maximum observed plasma concentration (Cmax), area under the plasma concentration-time curve (AUC) over a dosing interval (AUCT), AUC from time zero to infinity (AUCinf), AUC from time zero to the time of the last measurable concentration (AUClast), and time of the maximum observed plasma concentration (tmax). Metabolite exposure (based on Cmax, AUCT, and AUCinf) were determined for each group as a ratio of the 2 primary active metabolites, ZP2469 (ZP18481-34) and ZP2711 (ZP18481-35), relative to the glepaglutide parent drug.
The PK parameters estimates for glepaglutide, ZP2469 (ZP18481-34), and ZP2711 (ZP18481-35) were listed and summarized using standard descriptive statistics. The primary PK parameters are t1/2 for glepaglutide, ZP2469 (ZP18481-34), and ZP2711 (ZP18481-35); and CL (IV dose), CL/F (SC doses), Vss (IV dose), Vss/F (SC dose), Vz (IV dose), and Vz/F (SC doses) for glepaglutide. The half-life is calculated as LN(2)/ke where ÷ke is estimate from the slope of the terminal part of the LN(concentration) versus time curve, with repeats regressions of LN(concentration) values using the last three points with non-zero concentrations, then the last four points, last five points, etc. Points with a concentration value of zero are not included. Points prior to Cmax are not used. […] 2) ke must be calculated from at least three data points. 3) The estimated slope must be negative, so that its negative ke is positive. The results of the calculations carried out with preliminary data are shown in Table 4, while the results of the calculations with the complete final data set are shonw in Table 5. […]

“And” between values parts separate entries of the source, which are not always exact repeats. Equal values may be shown once.

With “H-HGEGTFSSELATILDALAARDFIAWLIATKITDK-OH [ZP2469]”, the “Half-life of ZP2469 in the interval from 72 to 168 hours post dose” value (shortened to “Half-life of ZP2469 in the interval”) (Group A, 1 mg once daily, after 7 doses) was 75 h and 87 h and 80 h and 54 h and 57 h; the “Half-life of ZP2469 in the interval” value (Group B, 5 mg once daily, after 7 doses) is 168 hr and 77 hr and 101 hr (2×) and 53 hr and 34 hr and 46 hr and 100 hr and 40 hr and 84 hr and 50 hr and 42 hr; the “Half-life of ZP2469 in the interval” value (Group C, 5 mg once weekly, after 1 dose) was 329 hr and 41 hr and 38 hr and 48 hr (2×) and 59 hr and 61 hr and 217 hr and 45 hr and 39 hr and 91 hr and 75 hr; the “Half-life of ZP2469 in the interval” value (Group C, 5 mg once weekly, after 6 doses) was 26 h and 35 h and 59 h and 75 h and 57 h and 43 h and 52 h and 107 h and 33 h and 68 h and 47 h and 65 h and 452 h; the “Half-life of ZP2469 in the interval” value (Group D, 10 mg once weekly, after 1 dose) was 66 hr and 54 hr and 120 hr and 36 hr and 46 hr and 35 hr and 60 hr and 26 hr and 158 hr and 53 hr and 43 hr (2×) and 33 hr and 45 hr and 38 hr; the “Half-life of ZP2469 in the interval” value (Group D, 10 mg once weekly, after 6 doses) was 60 hr (2×) and 55 hr and 74 hr and 58 hr and 70 hr and 59 hr and 30 hr and 102 hr and 53 hr and 42 hr and 48 hr and 56 hr and 17 hr. The “Half-life ZP2469” value by setting is: (Group A, 1 mg glepaglutide SC once daily, after 7 doses) 20 h and 95 h and 76 h and 36 h and 33 h and 87 h; (Group B, 5 mg glepaglutide SC once daily, after 7 doses) 75 h and 108 h and 209 h and 59 h and 139 h and 94 h; (Group C, 5 mg glepaglutide SC once weekly, after 1 dose) 38 hr (2×) and 100 hr and 17 hr and 48 hr and 20 hr; (Group C, 5 mg glepaglutide SC once weekly, after 6 doses) 11 h and 17 h and 16 h and 32 h and 40 h and 22 h; (Group D, 10 mg glepaglutide SC once weekly, after 1 dose) 52 h and 38 h and 43 h and 34 h; (Group D, 10 mg glepaglutide SC once weekly, after 6 doses) 60 h and 55 h and 74 h and 34 h and 58 h.

Source of the values: patent EP4796171A2 (Zealand Pharma A/S, priority 2017, dated 2018).
